12 molecules from ChEMBL document CHEMBL1146010, “Synthesis and in vitro antimycobacterial activity of N1-nicotinoyl-3-(4'-hydroxy-3'-methyl phenyl)-5-[(sub)phenyl]-2-pyrazolines” (2006) can be followed below.

Values after ≈ are worked out from the molar mass of the structure shown.

For the test, the system named is Mycobacterium tuberculosis. Put plainly: Antimycobacterial activity against isoniazid-resistant Mycobacterium tuberculosis by agar dilution method. The format is functional. (In general: In agar dilution the substance is mixed into plates at graded concentrations.)
As for `Cc1cc(C2=NN(C(=O)c3ccncc3)C(c3cccc([N+](=O)[O-])c3)C2)ccc1O` (configuration not stated), the minimal inhibitory concentration (MIC) was 7.75 µM (≈ 3.12 µg/mL).
Next, `COc1ccc(C2CC(c3ccc(O)c(C)c3)=NN2C(=O)c2ccncc2)c(OC)c1OC` (configuration not stated): 0.87 µM (≈ 0.389 µg/mL); `Cc1cc(C2=NN(C(=O)c3ccncc3)C(c3ccco3)C2)ccc1O` (configuration not stated): 0.58 µM (≈ 0.201 µg/mL); `Cc1cc(C2=NN(C(=O)c3ccncc3)C(c3c(Cl)cccc3Cl)C2)ccc1O` (configuration not stated): 0.23 µM (≈ 0.098 µg/mL).
The value for `Cc1cc(C2=NN(C(=O)c3ccncc3)C(c3ccc(Cl)cc3)C2)ccc1O` (configuration not stated) was 3.98 µM (≈ 1.56 µg/mL); that for `COc1ccc(C2CC(c3ccc(O)c(C)c3)=NN2C(=O)c2ccncc2)cc1` (configuration not stated) was 8.05 µM (≈ 3.12 µg/mL).
Next, `Cc1cc(C2=NN(C(=O)c3ccncc3)C(c3ccccc3)C2)ccc1O` (configuration not stated): 4.36 µM (≈ 1.56 µg/mL); `COc1ccc(C2CC(c3ccc(O)c(C)c3)=NN2C(=O)c2ccncc2)cc1OC` (configuration not stated): 0.93 µM (≈ 0.388 µg/mL).
`Cc1cc(C2=NN(C(=O)c3ccncc3)C(c3ccc(N(C)C)cc3)C2)ccc1O` (configuration not stated) returned an MIC of 1.95 µM (≈ 0.781 µg/mL).
Next, `Cc1cc(C2=NN(C(=O)c3ccncc3)C(c3ccccc3Cl)C2)ccc1O` (configuration not stated): 0.26 µM (≈ 0.102 µg/mL).
Next, `Cc1cc(C2=NN(C(=O)c3ccncc3)C(c3ccc(F)cc3)C2)ccc1O` (configuration not stated): 0.54 µM (≈ 0.203 µg/mL); `NNC(=O)c1ccncc1` [ISONIAZID]: 11.4 µM (≈ 1.56 µg/mL).

As usually defined, the MIC is the lowest concentration found to suppress growth. Low readings indicate a more susceptible organism, high ones a less susceptible organism.
